In US9233964B2, “Sulfamide piperazine derivatives as protein tyrosine kinase inhibitors and pharmaceutical use therof” (LEO PHARMA A/S, priority 2011, dated 2016) one finds EC50 data, which are given here for 17 molecules.

A word on the EC50: it is the concentration needed to bring the measured effect to its halfway point.

SMILES strings stand for the structures. A value given as a limit tells only on which side of the number the result lay.

Common to all, as to type: biochemical
Test [1] concerns the target T1, JAK2 (Homo sapiens, UniProt O60674).
T1 construct: All four purified enzymes contain only the catalytic domain; His (N); purchased Carna Biosciences, Inc; host or cells: baculovirus expression system
Briefly: JAK kinase assay (HTRF, phosphorylation of synthetic peptide), JAK2. The following applies: catalytic domain, ATP at Km (4 μM); read-out: JAK2 kinase inhibitory activity (EC50). The method, then: (§1) Human baculovirus-expressed JAK1, 2, 3 and TYK2 were purchased from Carna Biosciences, Inc. All four purified enzymes contain only the catalytic domain. JAK1 (aa 850-1154) and TYK2 (aa 871-1187) are expressed with an N-terminally fused GST-tag, and JAK2 and JAK3 with an N-terminally fused His-tag.
(§2) Inhibition of phosphorylation of a synthetic peptide was measured in an HTRF-based assay using the TK substrate-Biotin from the Cisbio HTRFKinEASE TK kit. First, 2 μl of TK solution (TK substrate-biotin in kinase buffer [1× enzymatic buffer from HTRFKinEASE TK kit, 1 mM DTT]) is added to a plate containing 1 μl prediluted compound (final assay concentration DMSO: 0.75%). Then, 5 μl kinase-ATP mix (prepared in kinase buffer) is added to the wells and the plates are incubated at RT for 20-30 min. For all four kinases a concentration of ATP that corresponded to the Km for ATP was used. The final concentrations of buffers, substrate, kinase and ATP were: JAK1: 50 mM Hepes buffer pH 7.0, 0.01% BSA, 10 mM MgCl2, 1 mM DTT, 7 μM ATP, 50 nM SEB, 1 μM TK Substrate-Biotin and 5 ng JAK1; JAK2: 50 mM Hepes buffer pH 7.0, 0.01% BSA, 5 mM MgCl2, 1 mM DTT, 4 μM ATP, 1 μM TK Substrate-Biotin and 0.1 ng JAK2; JAK3: 50 mM Hepes buffer pH 7.0, 0.01% BSA, 5 mM MgCl2, 1 mM DTT, 2 μM ATP, 1 μM TK Substrate-Biotin and 0.3 ng JAK3; TYK2: 50 mM Hepes buffer pH 7.0, 0.01% BSA, 5 mM MgCl2, 1 mM DTT, 13 μM ATP, 50 nM SEB, 1 μM TK Substrate-Biotin and 0.8 ng TYK2. Thereafter, the kinase reaction is stopped by adding 4 μl detection mix (final concentrations: 50 mM Hepes buffer pH 7.0, 0.01% BSA, 0.8 M KF, 20 mM EDTA, 42 nM Streptavidin-XL665 and 1:400 STK Ab Cryptate) and the plates are incubated overnight in the dark. The HTRF signal is read using an Envision plate reader.
A general note: Time-resolved FRET reads energy transfer from a long-lived donor to a nearby acceptor.

Test [2] concerns the target T2, JAK3 (Homo sapiens, UniProt P52333).
T2 construct: All four purified enzymes contain only the catalytic domain; His (N); purchased Carna Biosciences, Inc; host or cells: baculovirus expression system
Briefly: JAK kinase assay (HTRF, phosphorylation of synthetic peptide), JAK3. The conditions noted are these: catalytic domain, ATP at Km (2 μM); read-out: JAK3 kinase inhibitory activity (EC50). On the procedure: as §1, §2

For test [3], the target named is T3, JAK1 (Homo sapiens, UniProt P23458).
T3 construct: JAK1 (aa 850-1154) and TYK2 (aa 871-1187) are expressed with an N-terminally fused GST-tag; GST (N); purchased Carna Biosciences, Inc; host or cells: baculovirus expression system
T3 sequence (P23458 850-1154): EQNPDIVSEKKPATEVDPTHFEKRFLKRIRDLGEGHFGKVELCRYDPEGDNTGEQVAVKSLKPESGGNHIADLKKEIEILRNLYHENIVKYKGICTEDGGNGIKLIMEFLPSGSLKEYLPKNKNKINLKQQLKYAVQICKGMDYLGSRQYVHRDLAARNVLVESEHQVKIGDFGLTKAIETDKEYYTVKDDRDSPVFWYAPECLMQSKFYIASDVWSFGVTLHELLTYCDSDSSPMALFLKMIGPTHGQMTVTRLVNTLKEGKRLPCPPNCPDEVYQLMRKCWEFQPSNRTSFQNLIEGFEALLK
Briefly: JAK kinase assay (HTRF, phosphorylation of synthetic peptide), JAK1. The following applies: catalytic domain, ATP at Km (7 μM); read-out: JAK1 kinase inhibitory activity (EC50). The method, then: as §1, §2

The target of test [4] is T4, TYK2 (Homo sapiens, UniProt P29597).
T4 construct: JAK1 (aa 850-1154) and TYK2 (aa 871-1187) are expressed with an N-terminally fused GST-tag; GST (N); purchased Carna Biosciences, Inc; host or cells: baculovirus expression system
T4 sequence (P29597 871-1187): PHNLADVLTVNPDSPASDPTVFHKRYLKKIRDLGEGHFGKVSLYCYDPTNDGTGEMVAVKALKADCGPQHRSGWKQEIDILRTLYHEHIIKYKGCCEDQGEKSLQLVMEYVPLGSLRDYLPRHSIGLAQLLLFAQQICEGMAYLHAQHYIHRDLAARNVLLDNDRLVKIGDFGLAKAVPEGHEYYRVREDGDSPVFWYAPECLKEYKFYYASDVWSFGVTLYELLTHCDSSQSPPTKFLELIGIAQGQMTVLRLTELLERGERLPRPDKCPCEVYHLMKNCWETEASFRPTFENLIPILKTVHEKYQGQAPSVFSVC
Briefly: JAK kinase assay (HTRF, phosphorylation of synthetic peptide), TYK2. The conditions noted are these: catalytic domain, ATP at Km (13 μM); read-out: TYK2 kinase inhibitory activity (EC50). On the procedure: as §1, §2

T1 sequence (O60674 849-1124 limits assumed): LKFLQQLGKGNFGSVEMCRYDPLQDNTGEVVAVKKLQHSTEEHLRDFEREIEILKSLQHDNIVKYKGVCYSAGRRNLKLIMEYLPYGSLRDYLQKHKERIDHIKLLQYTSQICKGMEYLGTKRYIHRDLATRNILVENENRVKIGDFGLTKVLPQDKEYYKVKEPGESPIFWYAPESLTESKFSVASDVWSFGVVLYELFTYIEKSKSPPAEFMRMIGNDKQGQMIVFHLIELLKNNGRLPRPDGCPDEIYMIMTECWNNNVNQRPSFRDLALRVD
T2 sequence (P52333 822-1111 limits assumed): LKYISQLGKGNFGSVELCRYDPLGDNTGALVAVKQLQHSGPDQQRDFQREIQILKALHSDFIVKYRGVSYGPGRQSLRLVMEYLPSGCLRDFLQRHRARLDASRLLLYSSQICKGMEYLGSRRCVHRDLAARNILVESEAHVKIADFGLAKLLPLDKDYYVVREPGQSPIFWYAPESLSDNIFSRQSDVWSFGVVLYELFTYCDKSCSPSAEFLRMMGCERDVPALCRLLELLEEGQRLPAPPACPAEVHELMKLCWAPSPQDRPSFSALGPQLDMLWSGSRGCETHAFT

In the case of `CN(Cc1ccccc1C#N)S(=O)(=O)N1CCN(c2ncnc3[nH]ccc23)CC12CC2` [Example 14, 7-(7H-Pyrrolo[2,3-d]pyrimidin-4-yl)-4,7-diaza-spiro[2.5]octane-4-sulfonic acid (2-cyano-benzyl)-methyl-amide], the EC50 was below 0.1 µM in test [1], 0.1 to 0.5 µM in test [2], below 0.1 µM in test [3] and below 0.1 µM in test [4].
With `CN(CC1CCCCC1)S(=O)(=O)N1CCN(c2ncnc3[nH]ccc23)CC12CC2` [Example 15, 7-(7H-Pyrrolo[2,3-d]pyrimidin-4-yl)-4,7-diaza-spiro[2.5]octane-4-sulfonic acid cyclohexylmethyl-methyl-amide], the EC50 in test [1] was below 0.1 µM; in test [2] it was below 0.1 µM; in test [3], below 0.1 µM; in test [4] it was 0.1 to 0.5 µM.
Regarding `CN(CCc1ccc(F)cc1)S(=O)(=O)N1CCN(c2ncnc3[nH]ccc23)CC12CC2` [Example 16, 7-(7H-Pyrrolo[2,3-d]pyrimidin-4-yl)-4,7-diaza-spiro[2.5]octane-4-sulfonic acid [2-(4-fluoro-phenyl)-ethyl]-methyl-amide], the EC50 in test [1] is below 0.1 µM; in test [2], below 0.1 µM; in test [3] it was below 0.1 µM; in test [4], 0.1 to 0.5 µM.
Take `CN(CCc1cccc(F)c1)S(=O)(=O)N1CCN(c2ncnc3[nH]ccc23)CC12CC2` [Example 17, 7-(7H-Pyrrolo[2,3-d]pyrimidin-4-yl)-4,7-diaza-spiro[2.5]octane-4-sulfonic acid [2-(3-fluoro-phenyl)-ethyl]-methyl-amide]: the EC50 in test [1], in test [2], in test [3] and in test [4] was below 0.1 µM each time.
Consider `O=S(=O)(N(CCc1ccccc1)CCc1ccccc1)N1CCN(c2ncnc3[nH]ccc23)CC12CC2` [Example 18, 7-(7H-Pyrrolo[2,3-d]pyrimidin-4-yl)-4,7-diaza-spiro[2.5]octane-4-sulfonic acid diphenethylamide], for which the EC50 in test [1] is 0.1 to 0.5 µM; in test [2] it was above 0.5 µM; in test [3], 0.1 to 0.5 µM; in test [4] it was above 0.5 µM.
Regarding `N#CCN(CCc1ccccc1)S(=O)(=O)N1CCN(c2ncnc3[nH]ccc23)CC12CC2` [Example 19, 7-(7H-Pyrrolo[2,3-d]pyrimidin-4-yl)-4,7-diaza-spiro[2.5]octane-4-sulfonic acid cyanomethyl-phenethyl-amide], the EC50 in test [1], in test [2], in test [3] and in test [4] was below 0.1 µM in each case.
On to `O=S(=O)(N(CCc1ccccc1)CC1CCCCO1)N1CCN(c2ncnc3[nH]ccc23)CC12CC2` (centres unmarked) [Example 21, 7-(7H-Pyrrolo[2,3-d]pyrimidin-4-yl)-4,7-diaza-spiro[2.5]octane-4-sulfonic acid phenethyl-(tetrahydro-pyran-2-ylmethyl)-amide], for which the concentration giving a half-maximal response (EC50) is below 0.1 µM in test [1], 0.1 to 0.5 µM in test [2], below 0.1 µM in test [3] and above 0.5 µM in test [4].
Take `COCCN(CCc1ccccc1)S(=O)(=O)N1CCN(c2ncnc3[nH]ccc23)CC12CC2` [Example 22, 7-(7H-Pyrrolo[2,3-d]pyrimidin-4-yl)-4,7-diaza-spiro[2.5]octane-4-sulfonic acid (2-methoxy-ethyl)-phenethyl-amide]: the EC50 in test [1] was below 0.1 µM; in test [2], below 0.1 µM; in test [3], below 0.1 µM; in test [4], 0.1 to 0.5 µM.
Turning to `CC#CCN(CCc1ccccc1)S(=O)(=O)N1CCN(c2ncnc3[nH]ccc23)CC12CC2` [Example 23, 7-(7H-Pyrrolo[2,3-d]pyrimidin-4-yl)-4,7-diaza-spiro[2.5]octane-4-sulfonic acid but-2-ynyl-phenethyl-amide], the EC50 in test [1] is below 0.1 µM; in test [2], 0.1 to 0.5 µM; in test [3], below 0.1 µM; in test [4], above 0.5 µM.
Turning to `O=S(=O)(N(CCc1ccccc1)CCn1cccn1)N1CCN(c2ncnc3[nH]ccc23)CC12CC2` [Example 24, 7-(7H-Pyrrolo[2,3-d]pyrimidin-4-yl)-4,7-diaza-spiro[2.5]octane-4-sulfonic acid phenethyl-(2-pyrazol-1-yl-ethyl)-amide], the EC50 in test [1] is below 0.1 µM; in test [2] it was below 0.1 µM; in test [3], below 0.1 µM; in test [4], 0.1 to 0.5 µM.
On to `O=S(=O)(N(CCO)CCc1ccccc1)N1CCN(c2ncnc3[nH]ccc23)CC12CC2` [Example 25, 7-(7H-Pyrrolo[2,3-d]pyrimidin-4-yl)-4,7-diaza-spiro[2.5]octane-4-sulfonic acid (2-hydroxy-ethyl)-phenethyl-amide], for which the concentration giving a half-maximal response (EC50) in test [1], in test [2], in test [3] and in test [4] was below 0.1 µM each time.
Take `CN(CCn1cccc1)S(=O)(=O)N1CCN(c2ncnc3[nH]ccc23)CC12CC2` [Example 26, 7-(7H-Pyrrolo[2,3-d]pyrimidin-4-yl)-4,7-diaza-spiro[2.5]octane-4-sulfonic acid methyl-(2-pyrrol-1-yl-ethyl)-amide]: the EC50 in test [1], in test [2], in test [3] and in test [4] was below 0.1 µM throughout.
With `CC(C)CCN(C)S(=O)(=O)N1CCN(c2ncnc3[nH]ccc23)CC12CC2` [Example 27, 7-(7H-Pyrrolo[2,3-d]pyrimidin-4-yl)-4,7-diaza-spiro[2.5]octane-4-sulfonic acid methyl-(3-methyl-butyl)-amide], the EC50 in test [1] was below 0.1 µM; in test [2] it was below 0.1 µM; in test [3], below 0.1 µM; in test [4] it was 0.1 to 0.5 µM.
Consider `CN(Cc1ccccn1)S(=O)(=O)N1CCN(c2ncnc3[nH]ccc23)CC12CC2` [Example 28, 7-(7H-Pyrrolo[2,3-d]pyrimidin-4-yl)-4,7-diaza-spiro[2.5]octane-4-sulfonic acid methyl-pyridin-2-ylmethyl-amide], for which the EC50 was below 0.1 µM in test [1], 0.1 to 0.5 µM in test [2], below 0.1 µM in test [3] and 0.1 to 0.5 µM in test [4].
Take `CN(CCCc1ccc(C#N)cc1)S(=O)(=O)N1CCN(c2ncnc3[nH]ccc23)CC12CC2` [Example 29, 7-(7H-Pyrrolo[2,3-d]pyrimidin-4-yl)-4,7-diaza-spiro[2.5]octane-4-sulfonic acid [3-(4-cyano-phenyl)-propyl]-methyl-amide]: the EC50 in test [1] was below 0.1 µM; in test [2], 0.1 to 0.5 µM; in test [3], below 0.1 µM; in test [4], above 0.5 µM.
With `CN(CCCc1cccc(C#N)c1)S(=O)(=O)N1CCN(c2ncnc3[nH]ccc23)CC12CC2` [Example 30, 7-(7H-Pyrrolo[2,3-d]pyrimidin-4-yl)-4,7-diaza-spiro[2.5]octane-4-sulfonic acid [3-(3-cyano-phenyl)-propyl]-methyl-amide], the EC50 in test [1] was below 0.1 µM; in test [2], 0.1 to 0.5 µM; in test [3] it was below 0.1 µM; in test [4], above 0.5 µM.
Turning to `CN(CCOc1ccccc1)S(=O)(=O)N1CCN(c2ncnc3[nH]ccc23)CC12CC2` [Example 31, 7-(7H-Pyrrolo[2,3-d]pyrimidin-4-yl)-4,7-diaza-spiro[2.5]octane-4-sulfonic acid methyl-(2-phenoxy-ethyl)-amide], the EC50 was below 0.1 µM in test [1], 0.1 to 0.5 µM in test [2], below 0.1 µM in test [3] and 0.1 to 0.5 µM in test [4].
